In patent publication US20090215778A1, “Alpha-substituted Arylmethyl Piperazine Pyrazolo [1,5-alpha]Pyrimidine Amide Derivatives” (priority 2007, published 2009):

Tests used:
[1] = target: T1, HIV Env six-helix bundle (6HB) structure (Human immunodeficiency virus type 1 group M subtype B, UniProt P04579); test: Six-helix bundle (6HB) assay; assay type: cell-based, HIV-1 (strain RF)
T1 construct: H9 cells chronically infected with HIV-1 (H9/HIV-1RF); endogenous in cells; host or cells: H9 cells chronically infected with HIV-1 strain RF (Env is made from the virus in the infected cells, not by transfection)
In short: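 Chronically HIV-1 RF-infected H9 cells (12-40 days post-infection), 2.5×10^5 per well, were preincubated with compound for 30 min at 37 °C. sCD4 at 1 μg/mL was added for 1 h to trigger Env changes. 6HB-specific rabbit serum (1 h, 37 °C) was then added, followed by PE anti-rabbit (45 min, 4 °C), with flow cytometric fluorescence read-out.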

HIV-1, NL4-3 strain = test: Virus infection assay (virus entry and single-cycle infection); assay type: cell-based; settings: Human immunodeficiency virus 1, NL43, TZM-b1, read-out: Nl4
In short: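 TZM-b1 cells (CD4, CXCR4, CCR5; LTR-driven lacZ/luciferase reporters) were infected with HIV-1 NL4-3 (MOI 0.01) with 80 μg/mL DEAE-dextran in the presence of test compound, 4 h at 37 °C before adding complete medium. Infection was quantified one day post-infection as chemiluminescent β-galactosidase signal.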

T1 sequence (P04579 32-519): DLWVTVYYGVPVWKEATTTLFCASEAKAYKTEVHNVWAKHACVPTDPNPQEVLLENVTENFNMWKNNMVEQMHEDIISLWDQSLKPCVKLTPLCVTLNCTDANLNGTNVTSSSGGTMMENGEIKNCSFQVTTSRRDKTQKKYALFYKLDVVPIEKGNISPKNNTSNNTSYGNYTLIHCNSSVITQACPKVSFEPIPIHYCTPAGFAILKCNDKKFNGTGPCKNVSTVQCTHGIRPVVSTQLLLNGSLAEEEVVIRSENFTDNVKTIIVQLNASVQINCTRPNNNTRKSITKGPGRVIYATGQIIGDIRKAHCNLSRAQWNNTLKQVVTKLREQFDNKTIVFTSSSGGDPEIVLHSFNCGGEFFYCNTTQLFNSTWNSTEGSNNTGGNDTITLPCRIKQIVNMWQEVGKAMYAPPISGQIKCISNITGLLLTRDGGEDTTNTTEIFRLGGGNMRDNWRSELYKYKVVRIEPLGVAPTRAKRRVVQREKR
T1 sequence (P04579 520-865): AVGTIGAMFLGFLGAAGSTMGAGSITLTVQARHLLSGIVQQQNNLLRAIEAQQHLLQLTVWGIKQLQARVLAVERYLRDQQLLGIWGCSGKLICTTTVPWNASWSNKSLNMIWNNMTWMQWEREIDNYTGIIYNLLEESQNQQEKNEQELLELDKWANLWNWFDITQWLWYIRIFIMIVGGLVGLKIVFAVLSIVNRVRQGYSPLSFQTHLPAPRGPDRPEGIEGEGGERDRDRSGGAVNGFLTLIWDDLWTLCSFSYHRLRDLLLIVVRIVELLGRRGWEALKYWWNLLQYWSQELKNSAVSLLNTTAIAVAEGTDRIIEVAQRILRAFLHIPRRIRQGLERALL

| SMILES | IC50 [1] | IC50 (HIV-1, NL4-3 strain) |
| --- | --- | --- |
| COc1ccc(-c2nc3c(C(=O)N4CCN(C(CO)c5ccc(F)cc5)C[C@H]4C)cnn3c(C(F)(F)F)c2C)cc1 (stereo partly drawn) [methanone, [(2R)-4-[1-(4-fluorophenyl)-2-hydroxyethyl]-2-methyl-1-piperazinyl][5-(4-methoxyphenyl)-6-methyl-7-(trifluoromethyl)pyrazolo[1,5-α]pyrimidin-3-yl]-] | < 1 µM | < 1 µM |
| COc1ccc(-c2nc3c(C(=O)N4CCN(C(CO)c5ccc(Cl)s5)C[C@H]4C)cnn3c(C(F)(F)F)c2C)cc1 (stereo partly drawn) [methanone, [(2R)-4-[1-(5-chloro-2-thienyl)-2-hydroxyethyl]-2-methyl-1-piperazinyl][5-(4-methoxyphenyl)-6-methyl-7-(trifluoromethyl)pyrazolo[1,5-α]pyrimidin-3-yl]-] | < 1 µM | < 1 µM |
| COc1ccc(-c2nc3c(C(=O)N4CCN(C(CO)c5cc(F)ccc5OC)C[C@H]4C)cnn3c(C(F)(F)F)c2C)cc1 (stereo partly drawn) [methanone, [(2R)-4-[1-(5-fluoro-2-methoxyphenyl)-2-hydroxyethyl]-2-methyl-1-piperazinyl][5-(4-methoxyphenyl)-6-methyl-7-(trifluoromethyl)pyrazolo[1,5-α]pyrimidin-3-yl]-] | < 1 µM | < 1 µM |
| COc1ccc(-c2nc3c(C(=O)N4CCN(C(CO)c5ccc(Br)nc5)C[C@H]4C)cnn3c(C(F)(F)F)c2C)cc1 (stereo partly drawn) [methanone, [(2R)-4-[1-(6-bromo-3-pyridinyl)-2-hydroxyethyl]-2-methyl-1-piperazinyl][5-(4-methoxyphenyl)-6-methyl-7-(trifluoromethyl)pyrazolo[1,5-α]pyrimidin-3-yl]-] | < 1 µM | < 1 µM |
| CCOc1ccc(C(CO)N2CCN(C(=O)c3cnn4c(C(F)(F)F)c(C)c(-c5ccc(OC)cc5)nc34)[C@H](C)C2)cn1 (stereo partly drawn) [methanone, [(2R)-4-[1-(6-ethoxy-3-pyridinyl)-2-hydroxyethyl]-2-methyl-1-piperazinyl][5-(4-methoxyphenyl)-6-methyl-7-(trifluoromethyl)pyrazolo[1,5-α]pyrimidin-3-yl]-] | < 1 µM | < 1 µM |
| COc1ccc(-c2nc3c(C(=O)N4CCN(C(CO)c5cccc(CN)c5)C[C@H]4C)cnn3c(C(F)(F)F)c2C)cc1 (stereo partly drawn) [methanone, [(2R)-4-[1-[3-(aminomethyl)phenyl]-2-hydroxyethyl]-2-methyl-1-piperazinyl][5-(4-methoxyphenyl)-6-methyl-7-(trifluoromethyl)pyrazolo[1,5-α]pyrimidin-3-yl]-] | > 10.1 µM | > 10.1 µM |
| COc1ccc(-c2nc3c(C(=O)N4CCN(C(CO)c5cccc(N(C)C)c5)C[C@H]4C)cnn3c(C(F)(F)F)c2C)cc1 (stereo partly drawn) [methanone, [(2R)-4-[1-[3-(dimethylamino)phenyl]-2-hydroxyethyl]-2-methyl-1-piperazinyl][5-(4-methoxyphenyl)-6-methyl-7-(trifluoromethyl)pyrazolo[1,5-α]pyrimidin-3-yl]-] | < 1 µM | < 1 µM |
| COc1ccc(-c2nc3c(C(=O)N4CCN(C(CN(C)C)c5ccccc5)C[C@H]4C)cnn3c(C(F)(F)F)c2C)cc1 (stereo partly drawn) [methanone, [(2R)-4-[2-(dimethylamino)-1-phenylethyl]-2-methyl-1-piperazinyl][5-(4-methoxyphenyl)-6-methyl-7-(trifluoromethyl)pyrazolo[1,5-α]pyrimidin-3-yl]-] | < 1 µM | < 1 µM |
| COc1ccc(-c2nc3c(C(=O)N4CCN(C(CO)c5cn[nH]c5)C[C@H]4C)cnn3c(C(F)(F)F)c2C)cc1 (stereo partly drawn) [methanone, [(2R)-4-[2-hydroxy-1-(1H-pyrazol-4-yl)ethyl]-2-methyl-1-piperazinyl][5-(4-methoxyphenyl)-6-methyl-7-(trifluoromethyl)pyrazolo[1,5-α]pyrimidin-3-yl]-] | 1.1 to 10 µM | 1.1 to 10 µM |
| COc1ccc(-c2nc3c(C(=O)N4CCN(C(CO)c5cc(F)cc(F)c5F)C[C@H]4C)cnn3c(C(F)(F)F)c2C)cc1 (stereo partly drawn) [methanone, [(2R)-4-[2-hydroxy-1-(2,3,5-trifluorophenyl)ethyl]-2-methyl-1-piperazinyl][5-(4-methoxyphenyl)-6-methyl-7-(trifluoromethyl)pyrazolo[1,5-α]pyrimidin-3-yl]-] | < 1 µM | < 1 µM |
| COc1ccc(-c2nc3c(C(=O)N4CCN(C(CO)c5c(F)ccc(F)c5F)C[C@H]4C)cnn3c(C(F)(F)F)c2C)cc1 (stereo partly drawn) [methanone, [(2R)-4-[2-hydroxy-1-(2,3,6-trifluorophenyl)ethyl]-2-methyl-1-piperazinyl][5-(4-methoxyphenyl)-6-methyl-7-(trifluoromethyl)pyrazolo[1,5-α]pyrimidin-3-yl]-] | < 1 µM | < 1 µM |
| COc1ccc(-c2nc3c(C(=O)N4CCN(C(CO)c5cccnc5OC)C[C@H]4C)cnn3c(C(F)(F)F)c2C)cc1 (stereo partly drawn) [methanone, [(2R)-4-[2-hydroxy-1-(2-methoxy-3-pyridinyl)ethyl]-2-methyl-1-piperazinyl][5-(4-methoxyphenyl)-6-methyl-7-(trifluoromethyl)pyrazolo[1,5-α]pyrimidin-3-yl]-] | < 1 µM | < 1 µM |
| COc1ccc(-c2nc3c(C(=O)N4CCN(C(CO)c5cnc(OC)nc5)C[C@H]4C)cnn3c(C(F)(F)F)c2C)cc1 (stereo partly drawn) [methanone, [(2R)-4-[2-hydroxy-1-(2-methoxy-5-pyrimidinyl)ethyl]-2-methyl-1-piperazinyl][5-(4-methoxyphenyl)-6-methyl-7-(trifluoromethyl)pyrazolo[1,5-α]pyrimidin-3-yl]-] | < 1 µM | < 1 µM |
| COc1ccc(-c2nc3c(C(=O)N4CCN(C(CO)c5ccccc5OC)C[C@H]4C)cnn3c(C(F)(F)F)c2C)cc1 (stereo partly drawn) [methanone, [(2R)-4-[2-hydroxy-1-(2-methoxyphenyl)ethyl]-2-methyl-1-piperazinyl][5-(4-methoxyphenyl)-6-methyl-7-(trifluoromethyl)pyrazolo[1,5-α]pyrimidin-3-yl]-] | < 1 µM | < 1 µM |
| COc1ccc(-c2nc3c(C(=O)N4CCN(C(CO)c5cccs5)C[C@H]4C)cnn3c(C(F)(F)F)c2C)cc1 (stereo partly drawn) [methanone, [(2R)-4-[2-hydroxy-1-(2-thienyl)ethyl]-2-methyl-1-piperazinyl][5-(4-methoxyphenyl)-6-methyl-7-(trifluoromethyl)pyrazolo[1,5-α]pyrimidin-3-yl]-] | < 1 µM | < 1 µM |
| COc1ccc(-c2nc3c(C(=O)N4CCN(C(CO)c5cccc(OC)c5)C[C@H]4C)cnn3c(C(F)(F)F)c2C)cc1 (stereo partly drawn) [methanone, [(2R)-4-[2-hydroxy-1-(3-methoxyphenyl)ethyl]-2-methyl-1-piperazinyl][5-(4-methoxyphenyl)-6-methyl-7-(trifluoromethyl)pyrazolo[1,5-α]pyrimidin-3-yl]-] | < 1 µM | < 1 µM |
| COc1ccc(-c2nc3c(C(=O)N4CCN(C(CO)c5cccnc5)C[C@H]4C)cnn3c(C(F)(F)F)c2C)cc1 (stereo partly drawn) [methanone, [(2R)-4-[2-hydroxy-1-(3-pyridinyl)ethyl]-2-methyl-1-piperazinyl][5-(4-methoxyphenyl)-6-methyl-7-(trifluoromethyl)pyrazolo[1,5-α]pyrimidin-3-yl]-] | < 1 µM | > 10.1 µM |
| COc1ccc(-c2nc3c(C(=O)N4CCN(C(CO)c5ccsc5)C[C@H]4C)cnn3c(C(F)(F)F)c2C)cc1 (stereo partly drawn) [methanone, [(2R)-4-[2-hydroxy-1-(3-thienyl)ethyl]-2-methyl-1-piperazinyl][5-(4-methoxyphenyl)-6-methyl-7-(trifluoromethyl)pyrazolo[1,5-α]pyrimidin-3-yl]-] | < 1 µM | < 1 µM |
